Assay results published in patent publication US9187490B2, “Dimeric IAP inhibitors” (TetraLogic Pharmaceuticals Corporation, priority 2005, dated 2015).
pKd: −log10 of the molar value. Read-outs that look alike come from different tables or passages of the source.

How the values were obtained:
MDA-MB-231 cells [1] = test: Cell proliferation (MTT assay) with and without TRAIL; assay type: cell-based; details: MDA-MB-231, MTT, FIG. 4
MDA-MB-231 cells [2] = test: Colony formation assay with and without TRAIL; assay type: cell-based; details: MDA-MB-231, in combination with TRAIL
Experimental: The ability of cells to form viable colonies was analyzed by adding various concentrations of the compound in the presence and absence of 0.4 ng/ml of TRAIL. Briefly, cells are seeded at 100 cells per well in a 12 well format in 2 ml of growth medium. The medium is removed after twenty-four hours and replaced with Smac mimetics at various concentrations in growth medium with 1% DMSO. After 72 hours on test, the concentrations are removed and replaced with 2 ml. of growth medium. The plates are returned to the incubator for 7-10 days at which time the colonies have multiplied to at least 10 cells per colony which can be counted by eye. The plates are stained with a 0.01% crystal violet solution (wt:vol. in H2O) for thirty minutes. The plates are washed with tap water to remove any residual crystal violet, dried and the colonies are counted. Inhibition data were analyzed using the sigmoidal dose-response (variable slope) equation in GraphPad Prism (GraphPad Software, San Diego, Calif.). The 50% inhibitory concentration (EC50) was the drug concentration that decreased the […] by 50% relative to control samples without drug.

XIAP-BIR3 = target: T1, XIAP-BIR3 (Homo sapiens, UniProt P98170); test: XIAP BIR-3 fluorescence polarization binding assay; details: read-out: KD Range
T1 construct: 40 nM of XIAP-BIR3 for 15 min at RT
Experimental: Following incubation, the polarization values (mP) were measured on a Victor^2V using a 485 nm excitation filter and a 520 nm emission filter. IC50 values were determined from the plot using nonlinear least-squares analysis using GraphPad Prism.

T98G cells = test: Cytotoxicity synergy study with topoisomerase inhibitors; assay type: cell-based
Excerpt: The highest amount of synergy is 50-60% more cell death than would be expected by adding together the cytotoxicity of each compound alone. […] The total synergistic volume was 457, with the greatest synergism being about 30%-40% more cell death than would be expected by adding together the individual Smac and topotecan cytotoxicities, between Entry 1 and a topoismerase inhibitor, such as topotecan.
To further assess potential drug-drug interactions a matrix of the permutations of two-fold serial dilutions of each drug and a Snac mimetic were tested as well as the activity of each compound alone using a program called MacSynergy II (Prichard, M. N., K. R. Aseltine, and C. Shipman, Jr. 1993. MacSynergy II. User's manual. Univ. of Michigan, Ann Arbor). The synergy with paclitaxel and the Smac peptidomimetic Entry 122 in OVCAR3 cells was tested. The highest amount of synergy detected is 10-20% which indicates greater cell death than would be expected by adding together the cytotoxicity of either compound alone.

[3] = Half life after single intravenous dose in rat; details: in vivo, single IV dose 1 mg/kg, FIG. 2, read-out: terminal elimination half life (converted)
Experimental: The IV dose for each Smac mimetic was 1 mg/kg.

SK-OV-3 cells = test: 72 hour MTT cell survival assay, SK-OV-3; assay type: cell-based; details: SK-OV-3 ovarian cancer cell line, FIG. 3
Experimental: (§1) A 72 hour MTT assay, as previously described by Hansen, M. B., Nielsen, S. E., and Berg, K. ((1989) J. Immunol. Methods 119, 203-210) and incorporated herein by reference in its entirety, was used to differentiate between a specific versus non-specific effect on cell killing by Smac mimetics. Briefly, SK-OV-3 cells were seeded in 96-well plates in McCoy's medium containing 10% fetal bovine serum […] (20,000 per well) and incubated overnight at 37 C. […] 50 microliters of 5 mg/mL MTT reagent was then added to each well and the plates were incubated at 37° C. for 3 hours. At the end of the incubation period, 50 microliters of DMSO was added to each well to dissolve cells and the optical density (OD) of the wells was measured using a microplate reader (Victor^2 1420, Wallac, Finland) at 535 nm. Cell survival (CS) was calculated by the following equation CS=(OD treated well/mean OD control wells)×100%
The EC50, defined as the drug concentration that results in 50% CS, was derived by calculating the point where the dose-response curve crosses the 50% CS point using GraphPad Prism.

MRC-5 cells = test: 72 hour MTT assay, normal cell control MRC-5; assay type: cell-based; details: MRC-5 normal diploid cell line, FIG. 3
Experimental: as §1
Smac mimetic Entry 116 was tested using an ovarian cancer cell line, SK-OV-3, and MRC-5 cells were used as a normal cell control.

[4] = with topotecan and camptothecin

T1 sequence (P98170 241-356 limits assumed): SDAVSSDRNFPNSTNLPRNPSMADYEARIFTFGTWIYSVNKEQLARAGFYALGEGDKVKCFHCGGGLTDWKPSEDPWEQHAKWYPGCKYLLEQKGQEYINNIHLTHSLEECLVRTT

| Structure (SMILES) | increase in the antiproliferative effect in combination with TRAIL (MDA-MB-231 cells [1]; in combination with TRAIL) | antiproliferative effect, Smac mimetic alone (MDA-MB-231 cells [1]; without TRAIL) | increase in the cell killing as detected by loss in colony formation (MDA-MB-231 cells [2]) | pKd (XIAP-BIR3; 5 nM AbuRPF-K(5-Fam)-NH2, 40 nM XIAP-BIR3, 15 min RT, pH 7.5) | total synergistic volume (T98G cells; with a topoisomerase inhibitor such as topotecan) | greatest synergism, more cell death than expected by adding the individual cytotoxicities (T98G cells; with topotecan) | highest amount of synergy, more cell death than expected by adding the cytotoxicity of each compound alone (T98G cells; [4]) | synergy with topoisomerase inhibitors (T98G cells; [4]) | half-life [3] | pKd (XIAP-BIR3; Example 7 series) | more effective at killing tumor cells than negative controls (SK-OV-3 cells) | effect on normal (non-tumorigenic) cells (MRC-5 cells) |
| --- | --- | --- | --- | --- | --- | --- | --- | --- | --- | --- | --- | --- |
| CC(N)C(=O)NC(C(=O)N1CCCC1Cc1c(-c2ccc(-c3oc4ccccc4c3CC3CCCN3C(=O)C(NC(=O)C(C)N)C(C)C)cc2)oc2ccccc12)C(C)C (single isomer, unassigned) [Entry 1] | 1000 fold | resistant | 100 fold | > 7.00 | 457 | 30%-40% | 50-60% | act synergistically | ~6 h |  |  |  |
| CN[C@@H](C)C(=O)N[C@H](C(=O)N1C[C@@H](O)C[C@H]1Cc1c(-c2[nH]c3cc(F)ccc3c2C[C@@H]2C[C@H](O)CN2C(=O)[C@@H](NC(=O)[C@H](C)NC)[C@@H](C)OC)[nH]c2cc(F)ccc12)[C@@H](C)OC [Entry 116] |  |  |  |  |  |  |  |  |  | > 7.00 | 100,000 × | unaffected |
